This experiment concerns hGH-RH(1-29)NH2 induced GH release. Nature of the experiment: Inhibition of GH release in superfused rat pituitary system. In kind it is cell-based. Particulars: for GH response (% of control) 0 min / GH response (% of control) 30 min / GH response (% of control) 60 min / GH response (% of control) 90 min / GH response (% of control) 120 min: antagonist 30 nM; for GH response (% of control) 0 min: 1 nM hGH-RH(1-29)NH2 at 0 min; for GH response (% of control) 30 min: 1 nM hGH-RH(1-29)NH2 at 30 min; for GH response (% of control) 60 min: 1 nM hGH-RH(1-29)NH2 at 60 min; for GH response (% of control) 90 min: 1 nM hGH-RH(1-29)NH2 at 90 min; for GH response (% of control) 120 min: 1 nM hGH-RH(1-29)NH2 at 120 min; for endocrine antagonistic potency: inhibition of the GH release stimulated by hGH-RH(1-29)NH2 (in words): general statement, in vitro and in vivo. On the procedure:
The analogs were tested in vitro in a test described earlier (S. Vigh and A. V Schally, Peptides 5:241-[…], 1984) with modification (Z. Rekasi and A. V. Schally, P.N.A.S. 90:2146-2149, 1993).
Briefly, the cells are preincubated with peptides for 9 minutes (3 mL) at various concentrations. Immediately after the incubation, 1 nM hGH-RH(1-29)NH2 is administered for 3 minutes (1 mL) 10 minute response). To check the duration of the antagonistic effect of the analogue, 1 nM hGH-RH(1-29)NH2 is applied 30, 60, 90, and 120 minutes later for 3 minutes [30, 60, 90, 120 min responses]. Net integral values of the GH responses are evaluated. GH responses are compared to and expressed as percent of the original GH response induced by 1 nM GH-RH(1-29)NH2 The effect of the new antagonists are compared to that of [Ac-Tyr^1, D-Arg^2]hGH-RH(1-29)NH2, the “Standard antagonist”.
Rat GH levels in aliquots of undiluted and diluted superfusion samples were measured by double-antibody radioimmunoassay using materials supplied by the National Hormone and Pituitary Program, Baltimore, Md. The results of RIA were analyzed with a computer program developed in our institute (V. Csernus and A. V. Schally, in Neuroendocrine Research Methods, Harwood Academic (Greenstein, B. D. ed., London, pp. 71-109, 1991), hereby incorporated by reference.

Square brackets hold non-standard residues; d marks the D form. Peptide text beside a SMILES is read from it. * marks the point of attachment. Bpa = N[C@@H](Cc1ccc(C(=O)c2ccccc2)cc1)C(=O)O; hArg = N=C(N)NCCCC[C@H](N)C(=O)O; Nle = CCCC[C@H](N)C(=O)O; Abu = CC[C@H](N)C(=O)O; PhAc = O=C(Cc1ccccc1)*

For “[PhAc-Tyr^1, D-Arg^2, Phe(pCl)^6, Cit^8, Arg^9, Abu^15, Nle^27, Har^28, D-Arg^29]hGH-RH(1-29)NH2 [Peptide 23]”, the “GH response (% of control) 0 min” value is given as 55 % of control, the “GH response (% of control) 30 min” value is on record as 40 % of control, the “GH response (% of control) 60 min” value is on record as 41 % of control and the “GH response (% of control) 90 min” value is given as 47 % of control. Also, the “GH response (% of control) 120 min” value was 41 % of control.

Consider “[PhAc-Tyr^1, D-Arg^2, Phe(pCl)^6, Har^9, Tyr(Me)^10, Har^11, Abu^15, Nle^27, D-Arg^28, Har^29]hGH-RH(1-29)NH2 [Peptide 63]”, for which the “GH response (% of control) 0 min” value is recorded as 53 % of control, the “GH response (% of control) 30 min” value was 47 % of control, the “GH response (% of control) 60 min” value is given as 49 % of control and the “GH response (% of control) 90 min” value is recorded as 51 % of control.

In the case of “[PhAc-Arg^0, D-Arg^2, Phe(pCl)^6, Arg^9, Abu^15, Nle^27, D-Arg^28, Har^29]hGH-RH(1-29)NH2 [Peptide 18]”, the “GH response (% of control) 0 min” value is listed as 21 % of control, the “GH response (% of control) 30 min” value is 71 % of control, the “GH response (% of control) 60 min” value is 61 % of control and the “GH response (% of control) 90 min” value was 75 % of control. Also, the “GH response (% of control) 120 min” value is 63 % of control.

With “[PhAc-Tyr^1, D-Arg^2, Phe(pCl)^6, Cit^8, Arg^9, Abu^15, Nle^27, D-Arg^28, Har^29]hGH-RH(1-29)NH2 [Peptide 21]”, the “GH response (% of control) 0 min” value was 0 % of control, the “GH response (% of control) 30 min” value is listed as 13 % of control, the “GH response (% of control) 60 min” value was 33 % of control and the “GH response (% of control) 90 min” value is 43 % of control. For the same molecule, the “GH response (% of control) 120 min” value is 37 % of control and the “endocrine antagonistic potency: inhibition of the GH release stimulated by hGH-RH(1-29)NH2 (in words)” value is on record as “high endocrine antagonistic potencies”.

Take “[HOOC(CH2)14CO-Tyr^1, D-Arg^2, Phe(pCl)^6, Arg^9, Abu^15, Nle^27, D-Arg^28, Har^29]hGH-RH(1-29)NH2 [Peptide 13]”: the “GH response (% of control) 0 min” value was 87 % of control, the “GH response (% of control) 30 min” value was 77 % of control, the “GH response (% of control) 60 min” value was 76 % of control and the “GH response (% of control) 90 min” value is 71 % of control. Besides, the “GH response (% of control) 120 min” value is listed as 73 % of control.

On to “[CH3(CH2)14COD-Phe^0, D-Arg^2, Phe(pCl)^6, Arg^9, Abu^15, Nle^27, D-Arg^28, Har^29]hGH-RH(1-29)NH2 [Peptide 17]”, for which the “GH response (% of control) 0 min” value is reported as 29 % of control, the “GH response (% of control) 30 min” value is reported as 51 % of control, the “GH response (% of control) 60 min” value was 68 % of control and the “GH response (% of control) 90 min” value is given as 73 % of control. Besides, the “GH response (% of control) 120 min” value was 61 % of control.

On to “[HOOC(CH2)4CO-Tyr^1, D-Arg^2, Phe(pCl)^6, Arg^9, Abu^15, Nle^27, D-Arg^28, Har^29]hGH-RH(1-29)NH2 [Peptide 3]”, for which the “GH response (% of control) 0 min” value was 52 % of control, the “GH response (% of control) 30 min” value is listed as 61 % of control, the “GH response (% of control) 60 min” value is 56 % of control and the “GH response (% of control) 90 min” value is 70 % of control. The “GH response (% of control) 120 min” value is 149 % of control.

As for “[PhAc-Tyr^1, D-Arg^2, Phe(pCl)^6, Arg^9, His^10, Abu^15, Nle^27, D-Arg^28, Har^29]hGH-RH(1-29)NH2 [Peptide 32]”, the “GH response (% of control) 0 min” value was 28 % of control, the “GH response (% of control) 30 min” value was 43 % of control, the “GH response (% of control) 60 min” value is on record as 69 % of control and the “GH response (% of control) 90 min” value is listed as 76 % of control.

In the case of “[PhAc-Tyr^1, D-Arg^2, Phe(pCl)^6, Abu^8, Arg^9, Abu^15, Nle^27, D-Arg^28, Har^29]hGH-RH(1-29)NH2 [Peptide 27]”, the “GH response (% of control) 0 min” value was 19 % of control, the “GH response (% of control) 30 min” value is recorded as 15 % of control, the “GH response (% of control) 60 min” value is 23 % of control and the “GH response (% of control) 90 min” value is recorded as 23 % of control. The “GH response (% of control) 120 min” value was 61 % of control.

“[PhAc-Tyr^1, D-Arg^2, Phe(pCl)^6, D-Ala^8, Arg^9, Abu^15, Nle^27, D-Arg^28, Har^29]hGH-RH(1-29)NH2 [Peptide 26]”: the “GH response (% of control) 0 min” value is 20 % of control, the “GH response (% of control) 30 min” value was 43 % of control, the “GH response (% of control) 60 min” value is given as 66 % of control and the “GH response (% of control) 90 min” value is listed as 48 % of control. In addition, the “GH response (% of control) 120 min” value is 44 % of control.

Consider “[PhAc-Tyr^1, D-Arg^2, Phe(pCl)^6, Har^9, 3-Pal^10, Abu^15, Nle^27, D-Arg^28, Har^29]hGH-RH(1-29)NH2 [Peptide 40]”, for which the “GH response (% of control) 0 min” value is 42 % of control, the “GH response (% of control) 30 min” value is listed as 29 % of control, the “GH response (% of control) 60 min” value is recorded as 26 % of control and the “GH response (% of control) 90 min” value was 36 % of control. For the same molecule, the “GH response (% of control) 120 min” value was 30 % of control.

Regarding “[CH3(CH2)14CO-Tyr^1, D-Arg^2, Phe(pCl)^6, Arg^9, Abu^15, Nle^27, D-Arg^28, Har^29]hGH-RH(1-29)NH2 [Peptide 12]”, the “GH response (% of control) 0 min” value was 35 % of control, the “GH response (% of control) 30 min” value is on record as 30 % of control, the “GH response (% of control) 60 min” value is given as 35 % of control and the “GH response (% of control) 90 min” value is on record as 51 % of control. The “GH response (% of control) 120 min” value is on record as 43 % of control.

With “[PhAc-Tyr^1, D-Arg^2, Phe(pCl)^6, Har^9, Tyr(Me)^10, Abu^15, Nle^27, D-Arg^28, Agm^29]hGH-RH(1-29) [Peptide 52]”, the “GH response (% of control) 0 min” value was 86 % of control, the “GH response (% of control) 30 min” value was 13 % of control, the “GH response (% of control) 60 min” value was 45 % of control and the “GH response (% of control) 90 min” value is listed as 26 % of control. The “GH response (% of control) 120 min” value was 55 % of control.

As for “[PhAc-Tyr^1, D-Arg^2, Phe(pCl)^6, Har^9, Tyr(Me)^10, Orn^12, Abu^15, Nle^27, D-Arg^28, Har^29]hGH-RH(1-29)NHEt [Peptide 50]”, the “GH response (% of control) 0 min” value was 57 % of control, the “GH response (% of control) 30 min” value is reported as 65 % of control, the “GH response (% of control) 60 min” value is recorded as 69 % of control and the “GH response (% of control) 90 min” value is on record as 74 % of control. The “GH response (% of control) 120 min” value was 67 % of control.

Regarding “[Hca-Tyr^1, D-Arg^2, Phe(pCl)^6, Har^9, Tyr(Me)^10, Abu^15, Nle^27, D-Arg^28, Har^29, Har^30]hGH-RH(1-30)NHEt [Peptide 56]”, the “GH response (% of control) 0 min” value is given as 76 % of control, the “GH response (% of control) 30 min” value is 83 % of control, the “GH response (% of control) 60 min” value is 92 % of control and the “GH response (% of control) 90 min” value was 80 % of control. Besides, the “GH response (% of control) 120 min” value is 68 % of control.

Turning to `CCCC[C@H](NC(=O)[C@@H](NC(=O)[C@H](CC(=O)O)NC(=O)[C@H](CCC(N)=O)NC(=O)[C@H](CC(C)C)NC(=O)[C@H](CC(C)C)NC(=O)[C@H](CCCCN)NC(=O)[C@H](CCCNC(=N)N)NC(=O)[C@H](C)NC(=O)[C@H](CO)NC(=O)[C@H](CC(C)C)NC(=O)[C@H](CCC(N)=O)NC(=O)[C@H](CC)NC(=O)[C@H](CC(C)C)NC(=O)[C@@H](NC(=O)[C@H](CCCCN)NC(=O)[C@H](CCCNC(=N)N)NC(=O)[C@H](Cc1ccc(C(=O)c2ccccc2)cc1)NC(=O)[C@H](CCCCNC(=N)N)NC(=O)[C@H](CC(N)=O)NC(=O)[C@@H](NC(=O)[C@H](Cc1ccc(O)cc1)NC(=O)[C@@H](NC(=O)[C@H](C)NC(=O)[C@H](CC(=O)O)NC(=O)[C@@H](CCCNC(=N)N)NC(=O)[C@H](Cc1c[nH]cn1)NC(=O)Cc1ccccc1)[C@@H](C)CC)[C@@H](C)O)C(C)C)[C@@H](C)CC)C(=O)N[C@H](CCCNC(=N)N)C(=O)N[C@@H](CCCCNC(=N)N)C(N)=O` [Peptide 42, [PhAc-His^1, D-Arg^2, Tyr^6, Har^9, Bpa^10, Abu^15, Nle^27, D-Arg^28, Har^29]hGH-RH(1-29)NH2] (PhAc-H[dR]DAIYTN[hArg][Bpa]RKVL[Abu]QLSARKLLQDI[Nle][dR][hArg]-NH2), the “GH response (% of control) 0 min” value is given as 52 % of control, the “GH response (% of control) 30 min” value is given as 7 % of control, the “GH response (% of control) 60 min” value is 9 % of control and the “GH response (% of control) 90 min” value is given as 8 % of control. The “GH response (% of control) 120 min” value is listed as 13 % of control and the “endocrine antagonistic potency: inhibition of the GH release stimulated by hGH-RH(1-29)NH2 (in words)” value is given as “high endocrine antagonistic potencies”.

(Values after US7452865B2, “Antagonistic analogs of GH RH (2003)” (The Administrare's of the Tulane Educational Fund, priority 2004, dated 2008).)
